In experiment [1] the target is T1, Human cytomegalovirus DNA polymerase (Human cytomegalovirus, UniProt P08546).
T1 construct: made in house; host or cells: SF21 insect cells (baculovirus vector)
The experiment is described as follows: HCMV polymerase assay (AlphaLISA, IC50). Particulars: polymerase assay of Example 190. In kind it is biochemical. On the procedure:
(§1) Human cytomegalovirus and varicella zoster virus DNA polymerases were expressed via baculovirus vector in SF21 cells and purified. Heterodimeric nucleic acid substrate used in the herpesvirus polymerase reactions was generated by annealing a 59-mer template to a 17-mer digoxigenin-labeled primer. Polymerase (HCMV final concentration of 0.2 nM; VZV final concentration of 0.4 nM) was combined with an inhibitor compound or DMSO in assay buffer (10 mM HEPES, pH 7.5, 25 mM KCl, 25 mM NaCl, 5 mM MgCl2, 5% glycerol, 0.67 mg/ml bovine serum albuminutes, and 1 mM tris(2-carboxyethyl)phosphine), and this mixture was pre-incubated for 30 minutes at room temperature in 384-well microtiter plates. The polymerization reaction was initiated by the addition of template/primer substrate (final concentration: 1.6 nM), and dNTPs (final concentration: 24 nM dCTP, 24 nMdGTP, 16 nM dATP, 16 nM dTTP, and 0.8 nM biotin-dUTP). After 60 minutes incubation at 37° C., reactions were terminated with quench buffer (25 mM HEPES pH 7.5, 100 mM NaCl, 0.25% Tween-20, 12 mM EDTA, and 1 mg/ml bovine serum albumin). Incorporation of biotinylated UTP was detected with 2.5-5 ug/ml anti-DIG AlphaLISA acceptor beads and 5-10 ug/ml streptavidin AlphaLISA donor beads (Perkin Elmer). Compound effects were normalized to the window defined by the controls (DMSO only and pre-quenched wells), and were fit using a 4-parameter algorithm to report an IC50.
Background: Alpha assays give light when donor and acceptor beads are brought close together.

Experiment [2] deals with T2, varicella zoster virus DNA polymerase (Varicella-zoster virus, UniProt P09252).
T2 construct: made in house; host or cells: SF21 insect cells (baculovirus vector)
T2 sequence (P09252 whole entry): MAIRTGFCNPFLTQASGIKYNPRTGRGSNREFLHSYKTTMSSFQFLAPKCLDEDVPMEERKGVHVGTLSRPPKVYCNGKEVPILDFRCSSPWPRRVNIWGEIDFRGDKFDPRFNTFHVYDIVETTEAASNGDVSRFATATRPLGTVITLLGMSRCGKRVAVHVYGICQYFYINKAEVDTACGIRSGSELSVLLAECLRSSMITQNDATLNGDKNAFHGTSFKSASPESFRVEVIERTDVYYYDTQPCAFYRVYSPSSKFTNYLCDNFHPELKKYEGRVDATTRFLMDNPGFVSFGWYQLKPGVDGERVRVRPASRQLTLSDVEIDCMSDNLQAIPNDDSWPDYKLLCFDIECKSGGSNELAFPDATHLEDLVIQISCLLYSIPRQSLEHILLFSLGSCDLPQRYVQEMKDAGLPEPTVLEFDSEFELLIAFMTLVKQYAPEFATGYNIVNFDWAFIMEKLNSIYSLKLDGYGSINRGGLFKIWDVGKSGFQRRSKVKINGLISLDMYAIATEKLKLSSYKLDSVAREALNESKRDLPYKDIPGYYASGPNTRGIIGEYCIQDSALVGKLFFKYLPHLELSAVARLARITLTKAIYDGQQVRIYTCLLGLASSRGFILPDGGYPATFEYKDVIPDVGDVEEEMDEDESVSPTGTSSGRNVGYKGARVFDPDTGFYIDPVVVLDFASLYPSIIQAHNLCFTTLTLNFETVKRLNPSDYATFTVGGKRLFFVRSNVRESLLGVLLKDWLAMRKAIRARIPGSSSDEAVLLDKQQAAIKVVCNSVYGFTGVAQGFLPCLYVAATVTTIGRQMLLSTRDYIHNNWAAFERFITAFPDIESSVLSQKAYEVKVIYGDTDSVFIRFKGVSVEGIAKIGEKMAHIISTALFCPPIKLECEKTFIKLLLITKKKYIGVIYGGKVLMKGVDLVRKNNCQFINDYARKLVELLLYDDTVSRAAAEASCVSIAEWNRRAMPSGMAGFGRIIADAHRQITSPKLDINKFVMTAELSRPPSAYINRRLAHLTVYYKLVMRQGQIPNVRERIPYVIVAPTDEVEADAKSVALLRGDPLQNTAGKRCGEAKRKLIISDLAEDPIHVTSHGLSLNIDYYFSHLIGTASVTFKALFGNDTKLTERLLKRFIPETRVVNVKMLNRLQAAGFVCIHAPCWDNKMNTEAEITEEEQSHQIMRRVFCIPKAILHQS
The experiment is described as follows: VZV polymerase assay (AlphaLISA, IC50). In kind it is biochemical. The settings on record: polymerase assay of Example 190. On the procedure:
as §1

Experiment [3] concerns HCMV Strain AD169 in MRC-5 cells. Briefly: Viral qPCR assay HCMV (V0/V1, V2/V3), EC50. In kind it is cell-based. The settings on record: Human betaherpesvirus 5, AD169, MRC5, viral qPCR assay of Example 191; read-out: HCMV Cell (EC50). As for the experimental part: (§2) Viral qPCR Assays (V0/V1)
(§3) MRC5 cells, Vero cells, and MeWo cells were obtained from ATCC and were maintained at 37° C./5% CO2/90% relative humidity in Minimal Essential Medium with 10% fetal bovine serum, […] L-glutamine, 100 units/ml penicillin and 100 ug/ml streptomycin. Assay plates were prepared by dispensing compounds dissolved in DMSO into wells of 384 well collagen-coated plates using an ECHO acoustic dispenser. Each compound was tested in a 10-point, serial 3-fold dilution. Controls included uninfected cells and infected cells treated only with DMSO. Assays were initiated by mixing selected cells, in suspension, with virus, and dispensing 50 μl/well infected cells to pre-plated compounds. Plates were incubated at 37° C./5% CO2/90% relative humidity for ˜72 hrs to permit genomic replication, and infected cells were lysed by the addition of an equal volume of lysis buffer (10 mM Tris-HCl, pH8, 50 mM KCl, 2 mM MgCl2, 0.45% NP-40, 0.45% Tween-20, and 100 μg/ml proteinase K). An aliquot of the lysate was transferred to a 384-well PCR plate and incubated at 56° C. for 1 hour and then at 95° C. for 10 min. Levels of a viral gene and of the cellular control, PPIA (Thermo Fisher Assay ID=Hs04194521_s1), were measured in separate 10 μL qPCR assays using TaqMan® Gene Expression Master Mix (Applied Biosystems), and an 7900HT Fast Real-Time PCR System with 384-Well Block Module. 7-point, serial 10-fold dilutions of a plasmid standard were run on each plate to generate a standard curve, and genome copies numbers were calculated by plotting experimental Ct onto linear regression of the standard curve. Viral genome copy numbers were normalized by cellular control copy number, and compound effects were normalized to the window defined by the controls. Calculated % effects were fit using a 4-parameter algorithm, and EC50 was reported.
(§4) Viral qPCR Assays (V2/V3)
as §3, with “gene” for “gene and of the cellular control, PPIA (Thermo Fisher Assay ID=Hs04194521_s1),”, “in” for “in separate”, “Compound effects on viral” for “Viral”, “number” for “numbers were normalized by cellular control copy number, and compound effects”, “reported. • HCMV: Strain AD169 Street was assayed in MRC-5 cells and was used at 0.05-0.1 pfu/cell. The assays were performed in either growth media or in the same media with 50% fetal bovine serum. Primer-probe set was Thermo Fisher Assay ID=AIFATFK. • VZV: Strain Street was maintained as an infected cell stock in MRC-5 cells. It was assayed in MeWo or MRC5 cells and was used at 0.04-0.1 pfu/cell. […]” for “reported.”
(In qPCR the cycle at which signal appears reflects the starting amount.)

Experiment [4] has as its system VZV in MeWo or MRC5 cells. The experiment is described as follows: Viral qPCR assay VZV (V0/V1, V2/V3), EC50. The settings on record: 10%. Type of experiment: cell-based. On the procedure: as §2, §3, §4
as §3, with “gene” for “gene and of the cellular control, PPIA (Thermo Fisher Assay ID=Hs04194521_s1),”, “in” for “in separate”, “Compound effects on viral” for “Viral”, “number” for “numbers were normalized by cellular control copy number, and compound effects”, “reported. • HCMV: Strain AD169 Street was assayed in MRC-5 cells and was used at 0.05-0.1 pfu/cell. The assays were performed in either growth media or in the same media with 50% fetal bovine serum. Primer-probe set was Thermo Fisher Assay ID=AIFATFK. • VZV: Strain Street was maintained as an infected cell stock in MRC-5 cells. It was assayed in MeWo or MRC5 cells and was used at 0.04-0.1 pfu/cell. […]” for “reported.”

In experiment [5] the test system is HSV-1 Strain F in Vero or MRC5 cells. The experiment is described as follows: Viral qPCR assay HSV-1 (V0/V1, V2/V3), EC50. Type of experiment: cell-based. Particulars: 10%. As for the experimental part: as §2, §3, §4
as §3, with “gene” for “gene and of the cellular control, PPIA (Thermo Fisher Assay ID=Hs04194521_s1),”, “in” for “in separate”, “Compound effects on viral” for “Viral”, “number” for “numbers were normalized by cellular control copy number, and compound effects”, “reported. • HCMV: Strain AD169 Street was assayed in MRC-5 cells and was used at 0.05-0.1 pfu/cell. The assays were performed in either growth media or in the same media with 50% fetal bovine serum. Primer-probe set was Thermo Fisher Assay ID=AIFATFK. • VZV: Strain Street was maintained as an infected cell stock in MRC-5 cells. It was assayed in MeWo or MRC5 cells and was used at 0.04-0.1 pfu/cell. […]” for “reported.”

Where [6] appears, read: Human alphaherpesvirus 3, MRC5, MRC5 cells, read-out: VZV Cell (EC50) MRC5 10%.
Setting [7] is: Human alphaherpesvirus 1, MRC5, MRC5 cells, read-out: HSV1 Cell (EC50) MRC5 10%.
Setting [8] is: Human alphaherpesvirus 3, MeWo, MEWO cells, read-out: VZV Cell (EC50) MEWO 10%.
[9] abbreviates: Human alphaherpesvirus 1, Vero, VERO cells, read-out: HSV1 Cell (EC50) VERO 10%.

The structures appear in SMILES notation. Read-outs that look alike come from different tables or passages of the source.

The term IC50 denotes the concentration needed to halve the response being measured. Low values mean greater potency in that assay, high ones weaker potency in that assay. The term EC50 denotes the concentration needed to bring the measured effect to its halfway point.

T1 sequence (P08546 whole entry): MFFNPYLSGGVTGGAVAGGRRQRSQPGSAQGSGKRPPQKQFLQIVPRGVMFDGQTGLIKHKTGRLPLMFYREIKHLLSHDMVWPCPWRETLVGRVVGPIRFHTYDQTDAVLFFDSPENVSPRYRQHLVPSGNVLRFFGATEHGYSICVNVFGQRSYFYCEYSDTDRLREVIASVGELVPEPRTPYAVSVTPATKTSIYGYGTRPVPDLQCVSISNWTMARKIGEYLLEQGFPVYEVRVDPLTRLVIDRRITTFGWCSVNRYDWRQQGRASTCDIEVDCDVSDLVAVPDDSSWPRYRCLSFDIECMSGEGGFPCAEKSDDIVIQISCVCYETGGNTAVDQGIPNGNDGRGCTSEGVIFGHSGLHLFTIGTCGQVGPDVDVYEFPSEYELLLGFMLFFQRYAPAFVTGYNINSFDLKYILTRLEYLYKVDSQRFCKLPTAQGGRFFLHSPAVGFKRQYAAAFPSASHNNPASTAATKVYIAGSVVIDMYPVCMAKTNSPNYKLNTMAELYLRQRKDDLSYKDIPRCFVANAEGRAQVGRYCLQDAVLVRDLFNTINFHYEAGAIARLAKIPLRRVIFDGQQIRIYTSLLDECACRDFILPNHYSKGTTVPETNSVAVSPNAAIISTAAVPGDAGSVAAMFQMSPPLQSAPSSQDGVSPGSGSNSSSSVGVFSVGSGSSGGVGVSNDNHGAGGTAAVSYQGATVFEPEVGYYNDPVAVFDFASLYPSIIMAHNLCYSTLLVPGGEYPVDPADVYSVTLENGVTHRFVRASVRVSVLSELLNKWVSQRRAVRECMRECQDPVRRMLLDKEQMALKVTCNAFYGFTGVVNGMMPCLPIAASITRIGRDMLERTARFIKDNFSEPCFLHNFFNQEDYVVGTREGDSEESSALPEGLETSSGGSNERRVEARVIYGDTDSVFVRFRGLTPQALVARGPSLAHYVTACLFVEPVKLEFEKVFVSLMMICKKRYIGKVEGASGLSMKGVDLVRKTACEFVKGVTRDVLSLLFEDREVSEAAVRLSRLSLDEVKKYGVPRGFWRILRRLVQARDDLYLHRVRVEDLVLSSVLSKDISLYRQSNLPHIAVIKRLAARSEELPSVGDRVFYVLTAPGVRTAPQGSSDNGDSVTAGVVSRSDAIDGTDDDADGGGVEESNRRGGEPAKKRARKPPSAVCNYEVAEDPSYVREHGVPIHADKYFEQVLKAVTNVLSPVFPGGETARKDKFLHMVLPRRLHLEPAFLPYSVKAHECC

Turning to `CC(=O)N1CCC(Oc2cc(C(=O)NCc3ccc(Cl)cc3)ncc2-c2nc(C)ns2)CC1` [Compound 49], the IC50 in experiment [1] worked out at 36.3 nM; in experiment [2] it was 17.6 nM. Moreover, the EC50 was found to be 155 nM in experiment [3], 794 nM in experiment [4] (setting [6]) and 510 nM in experiment [5] (setting [7]).
For `Cn1ccc(-c2cnc(C(=O)NCc3ccc(Cl)cc3)cc2O[C@H]2CCN3C(=O)OC[C@@H]3C2)n1` [Compound 30], the IC50 in experiment [1] amounted to 9.86 nM; in experiment [2] it was 16.3 nM. Moreover, the EC50 stood at 116 nM in experiment [3]; 121 nM in experiment [4] (setting [6]); 82 nM in experiment [4] (setting [8]); 78.2 nM in experiment [5] (setting [7]); 132 nM in experiment [5] (setting [9]).
`CC(=O)N1CCC(Oc2cc(C(=O)NCc3ccc(Cl)cc3)ncc2-c2cnn(C(F)F)c2)CC1` [Compound 70]: the results for the IC50 in experiment [1] and in experiment [2] were 117 nM and 27.8 nM, respectively. In addition, the EC50 in experiment [3] is 1220 nM; in experiment [4] (setting [8]), 298 nM; in experiment [5] (setting [9]) it was 430 nM.
As to `COC/C=C/c1cnc(C(=O)NCc2ccc(Cl)cc2)cc1O[C@H]1CCN2C(=O)OC[C@@H]2C1` [Compound 155b], the IC50 in experiment [1] came out at 8.5 nM; in experiment [2], 9.56 nM. Moreover, the EC50 was 380 nM in experiment [3], 395 nM in experiment [4] (setting [6]), 263 nM in experiment [5] (setting [7]) and 209 nM in experiment [5] (setting [9]).
As to `Cn1cc(-c2cnc(C(=O)NCc3ccc(Cl)cc3)cc2O[C@H]2CCN3C(=O)CC[C@H]3C2)cn1` (racemic) [Compound 170], the results for the IC50 in experiment [1] and in experiment [2] were 178 nM and 87.4 nM, respectively. In addition, the EC50 in experiment [3] was determined as 736 nM; in experiment [4] (setting [8]) it was 599 nM; in experiment [5] (setting [9]) it was 266 nM.
Take `O=C(NCc1ccc(Cl)cc1)c1cc(O[C@H]2CCN3C(=O)OC[C@@H]3C2)c(-c2cscn2)cn1` [Compound 37]: the IC50 in experiment [1] was determined as 15.9 nM; in experiment [2], 6.03 nM. The EC50 in experiment [3] came out at 115 nM; in experiment [4] (setting [6]), 130 nM; in experiment [4] (setting [8]), 20.8 nM; in experiment [5] (setting [7]), 100 nM; in experiment [5] (setting [9]), 35.6 nM.
Regarding `CCc1noc(-c2cnc(C(=O)NCc3ccc(Cl)cc3)cc2O[C@H]2CCN3C(=O)OC[C@@H]3C2)n1` [Compound 149], the IC50 was 16.4 nM in experiment [1] and 6.31 nM in experiment [2]. Further, the EC50 in experiment [3] came to 124 nM; in experiment [4] (setting [6]) it was 269 nM; in experiment [5] (setting [7]), 125 nM.
As for `O=C(NCc1ccc(Cl)cc1)c1cc(O[C@H]2CCN3C(=O)NC[C@@H]3C2)c(-c2cnn(C(F)F)c2)cn1` (racemic) [Compound 163], the IC50 was 203 nM in experiment [1] and 105 nM in experiment [2]. Moreover, the EC50 in experiment [3] worked out at 2730 nM; in experiment [4] (setting [8]) it was 588 nM; in experiment [5] (setting [9]) it was 762 nM.
With `CC(C)n1ccc(-c2cnc(C(=O)NCc3ccc(Cl)cc3)cc2O[C@H]2CCN3C(=O)OC[C@@H]3C2)n1` [Compound 15], the IC50 was determined as 29.2 nM in experiment [1] and 19.9 nM in experiment [2]. Further, the values for the EC50 in experiment [3], in experiment [4] (setting [8]) and in experiment [5] (setting [9]) were 176 nM, 159 nM and 160 nM, respectively.
For `O=C(NCc1ccc(Cl)cc1)c1cc(O[C@H]2CCN3C(=O)OC[C@@H]3C2)c(CO)cn1` [Compound 98], the IC50 was determined as 45.6 nM in experiment [1] and 27.9 nM in experiment [2]. The EC50 is 509 nM in experiment [3] and 1520 nM in experiment [5] (setting [9]).
The like results for `Cc1ncc(-c2cc(O[C@H]3CCN4C(=O)OC[C@@H]4C3)cc(C(=O)NCc3ccc(Cl)cc3)n2)s1` [Compound 102] were, in that order, 199 nM, 117 nM, 8400 nM and 427 nM.
Consider `O=C(NCc1ccc(Cl)cc1)c1cc(O[C@@H]2CCN3C(=O)OC[C@H]3C2)c(-c2cn[nH]c2)cn1` (racemic) [Compound 25], for which the IC50 is 13.9 nM in experiment [1] and 4.44 nM in experiment [2]. Further, the values for the EC50 in experiment [3] and in experiment [5] (setting [9]) were 259 nM and 1670 nM, respectively.
The like results for `CC(=O)N1CCC(Oc2cc(C(=O)NCc3ccc(Cl)cc3)ncc2/C=C/CC(C)O)CC1` (centres unmarked) [Compound 72] were, in that order, 68.8 nM, 51.8 nM, 855 nM and 1110 nM.
The like results for `COC/C=C/c1cnc(C(=O)NCc2ccc(Cl)cc2)cc1OC1CCN(C(C)=O)CC1` [Compound 74] were, in that order, 83 nM, 35 nM, 1440 nM and 280 nM.
For `O=C(NCc1ccc(Cl)cc1)c1cc(O[C@H]2CCN3C(=O)OC[C@@H]3C2)cc(CO)n1` [Compound 152], in that order: 201 nM, 134 nM, 1890 nM and 10700 nM.
On to `CC(=O)N1CCC(Oc2cc(C(=O)NCc3ccc(Cl)cc3)ncc2/C=C/CO)CC1` [Compound 73], for which the IC50 in experiment [1] is 93.2 nM; in experiment [2] it was 45 nM. The EC50 in experiment [3] was 1780 nM; in experiment [5] (setting [9]) it was 842 nM.
Consider `O=C(NCc1ccc(Cl)cc1)c1cc(O[C@H]2CCN3C(=O)OC[C@@H]3C2)c(O)cn1` [Compound 146], for which the IC50 was determined as 20.1 nM in experiment [1] and 8.04 nM in experiment [2]. Moreover, the EC50 was 1140 nM in experiment [3] and 6220 nM in experiment [5] (setting [9]).
Regarding `CC(=O)N1CCC(Oc2cc(C(=O)NCc3ccc(Cl)cc3)ncc2C#Cc2ccc(C)cn2)CC1` [Compound 71], the IC50 in experiment [1] was 172 nM; in experiment [2], 119 nM. Moreover, the EC50 in experiment [3] stood at 1510 nM; in experiment [5] (setting [9]) it was 354 nM.

The record behind these values is patent publication US20240067657A1, “AMIDO-SUBSTITUTED PYRIDYL COMPOUNDS AND METHODS OF USE THEREOF FOR THE TREATMENT OF HERPESVIRUSES” (Merck Sharp & Dohme LLC, priority 2020, published 2024).
